{"source": "patent US20250382301A1", "about": "(Arizona Board of Regents on Behalf of the University of …, priority 2022, published 2025)", "data": [{"system": "WNT signaling (TopGFP reporter in Human Colonic Epithelial Cells (HCEC))", "assay": "WNT Reporter Assay (TopGFP reporter)", "format": "cell-based", "conditions": "Homo sapiens, stimulated with 10 μM CHIR99021, 24 hours, TopGFP/mCherry", "units": {"EC50": "nM"}, "description": "WNT Reporter Assay: Human Colonic Epithelial Cells (HCEC) were cultured using 1×DMEM supplemented with 1% penicillin/streptomycin, 1% Glutamax, and 10% fetal bovine serum in 5% CO2 at 37° C. These cells were previously engineered to express the TopGFP reporter (Addgene #24304) using second generation lentiviral techniques. For the Wnt reporter assay, cells were seeded at 2000 cells per well in a 384-well black screenstar imaging microplates (Greiner #781866) and allowed to adhere overnight. The following day cells were stimulated to induce the Wnt pathway using 10 μM CHIR99021 (Selleck #S1263). […] Cells were incubated for 24 hours before fixing for 30 minutes with 4% paraformaldehyde/sucrose solution. Cells were permeabilized with 0.1% triton-x in PBS for 10 minutes and stained for DAPI for 30 minutes. Plates were imaged on a Nikon Ti2 Eclipse fluorescent microscope for DAPI, GFP, and mCherry. Using Nikon Elements software for analysis, nuclei were segmented based on DAPI and mean object intensity per cell for both TopGFP and the internal control (mCherry) was measured. To calculate the amount of Wnt activity, we took the mean intensity of TopGFP and divided it by the mean intensity of mCherry per cell to normalize individual cells. Curves and EC50s were plotted and calculated using Graphpad Prism software.", "values": [{"molecule": "Nc1cc(-c2ccc3ncnc(N4CCN(c5ccccc5F)CC4)c3c2)ccn1", "note": "[Compound 15, 4-(4-(4-(2-fluorophenyl)piperazin-1-yl)quinazolin-6-yl)pyridin-2-amine]", "EC50": "100 to 1000"}, {"molecule": "c1ccc(N2CCN(c3ncnc4ccc(-c5cn[nH]c5)cc34)CC2)nc1", "note": "[Compound 14, 6-(1H-pyrazol-4-yl)-4-(4-(pyridin-2-yl)piperazin-1-yl)quinazoline]", "EC50": "< 100"}, {"molecule": "Nc1cc(-c2ccc3ncnc(N4CCN(c5ccc(O)cc5)CC4)c3c2)ccn1", "note": "[Compound 27, 4-(4-(6-(2-aminopyridin-4-yl)quinazolin-4-yl)piperazin-1-yl)phenol]", "EC50": "100 to 1000"}, {"molecule": "Cn1cc(-c2ccc3ncnc(N4CCN(c5ccccn5)CC4)c3c2)cn1", "note": "[Compound 7, 6-(1-methyl-1H-pyrazol-4-yl)-4-(4-(pyridin-2-yl)piperazin-1-yl)quinazoline]", "EC50": "100 to 1000"}, {"molecule": "C[C@H]1CN(c2ccccn2)CCN1c1ncnc2ccc(-c3ccnc(N)c3)cc12", "note": "[Compound 45, (S)-4-(4-(2-methyl-4-(pyridin-2-yl)piperazin-1-yl)quinazolin-6-yl)pyridin-2-amine]", "EC50": "< 100"}, {"molecule": "Nc1cc(-c2ccc3ncnc(N4CCC(c5ccc(F)cc5F)CC4)c3c2)ccn1", "note": "[Compound 63, 4-(4-(4-(2,4-difluorophenyl)piperidin-1-yl)quinazolin-6-yl)pyridin-2-amine]", "EC50": "100 to 1000"}, {"molecule": "Nc1cc(-c2ccc3nccc(N4CCN(c5ccccc5F)CC4)c3n2)ccn1", "note": "[Compound 52, 4-(8-(4-(2-fluorophenyl)piperazin-1-yl)-1,5-naphthyridin-2-yl)pyridin-2-amine]", "EC50": "< 100"}, {"molecule": "Nc1cc(-c2ccc3ncnc(N4CCN(c5ccc(F)cc5)CC4)c3n2)ccn1", "note": "[Compound 24, 4-(4-(4-(4-fluorophenyl)piperazin-1-yl)pyrido[3,2-d]pyrimidin-6-yl)pyridin-2-amine]", "EC50": "< 100"}, {"molecule": "Nc1cc(-c2ccc3nccc(N4CCN(c5ccccc5F)CC4)c3c2)ccn1", "note": "[Compound 33, 4-(4-(4-(2-fluorophenyl)piperazin-1-yl)quinolin-6-yl)pyridin-2-amine]", "EC50": "100 to 1000"}, {"molecule": "Nc1cc(-c2ccc3ncnc(N4CCC5(CCN(c6ccccn6)CC5)C4)c3c2)ccn1", "note": "[Compound 64, 4-(4-(8-(pyridin-2-yl)-2,8-diazaspiro[4.5]decan-2-yl)quinazolin-6-yl)pyridin-2-amine]", "EC50": "100 to 1000"}, {"molecule": "Nc1cc(-c2ccc3ncnc(N4CCC(n5ccccc5=O)CC4)c3c2)ccn1", "note": "[Compound 62, 1-(1-(6-(2-aminopyridin-4-yl)quinazolin-4-yl)piperidin-4-yl)pyridin-2(1H)-one]", "EC50": "100 to 1000"}, {"molecule": "Nc1cc(-c2ccc3ncnc(N4CCN(c5ccccc5F)C(=O)C4)c3n2)ccn1", "note": "[Compound 67, 4-(6-(2-aminopyridin-4-yl)pyrido[3,2-d]pyrimidin-4-yl)-1-(2-fluorophenyl)piperazin-2-one]", "EC50": "< 100"}, {"molecule": "Nc1cc(-c2ccc3ncnc(N4CCC5(CCN(c6ccccn6)C5)CC4)c3c2)ccn1", "note": "[Compound 65, 4-(4-(2-(pyridin-2-yl)-2,8-diazaspiro[4.5]decan-8-yl)quinazolin-6-yl)pyridin-2-amine]", "EC50": "< 100"}, {"molecule": "Fc1cccnc1N1CCN(c2ncnc3ccc(-c4c[nH]c5ncccc45)cc23)CC1", "note": "[Compound 57, 4-(4-(3-fluoropyridin-2-yl)piperazin-1-yl)-6-(1H-pyrrolo[2,3-b]pyridin-3-yl)quinazoline]", "EC50": "< 100"}, {"molecule": "Nc1cc(-c2ccc3ncnc(N4CCN(c5nccs5)CC4)c3c2)ccn1", "note": "[Compound 50, 4-(4-(4-(thiazol-2-yl)piperazin-1-yl)quinazolin-6-yl)pyridin-2-amine]", "EC50": "< 100"}, {"molecule": "c1ccc(N2CCN(c3ncnc4ccc(-c5c[nH]c6ncccc56)cc34)CC2)nc1", "note": "[Compound 17, 4-(4-(pyridin-2-yl)piperazin-1-yl)-6-(1H-pyrrolo[2,3-b]pyridin-3-yl)quinazoline]", "EC50": "< 100"}, {"molecule": "Nc1cc(-c2ccc3ncnc(N4CCN(c5ccccn5)CC4)c3n2)ccn1", "note": "[Compound 5, 4-(4-(4-(pyridin-2-yl)piperazin-1-yl)pyrido[3,2-d]pyrimidin-6-yl)pyridin-2-amine]", "EC50": "< 100"}, {"molecule": "c1ccc(N2CCN(c3ccnc4ccc(-c5cn[nH]c5)cc34)CC2)cc1", "note": "[Compound 26, 4-(4-phenylpiperazin-1-yl)-6-(1H-pyrazol-4-yl)quinoline]", "EC50": "< 100"}, {"molecule": "Nc1cc(-c2ccc3ncnc(N4CCN(c5ccccc5F)CC4)c3n2)ccn1", "note": "[Compound 19, 4-(4-(4-(2-fluorophenyl)piperazin-1-yl)pyrido[3,2-d]pyrimidin-6-yl)pyridin-2-amine]", "EC50": "< 100"}, {"molecule": "Nc1cc(-c2ccc3nccc(N4CCN(c5ccc(F)cc5)CC4)c3c2)ccn1", "note": "[Compound 30, 4-(4-(4-(4-fluorophenyl)piperazin-1-yl)quinolin-6-yl)pyridin-2-amine]", "EC50": "< 100"}, {"molecule": "Cc1n[nH]cc1-c1ccc2ncnc(N3CCN(c4ccccn4)CC3)c2c1", "note": "[Compound 60, 6-(3-methyl-1H-pyrazol-4-yl)-4-(4-(pyridin-2-yl)piperazin-1-yl)quinazoline]", "EC50": "> 1000"}]}, {"system": "WNT signaling (TopGFP reporter in Human Colonic Epithelial Cells (HCEC))", "assay": "WNT Reporter Assay (TopGFP reporter)", "format": "cell-based", "conditions": "stimulated with 10 μM CHIR99021, 24 hours, TopGFP/mCherry", "units": {"EC50": "nM"}, "values": [{"molecule": "6-(1-methyl-1H-pyrazol-3-yl)-4-(4-(5-(trifluoromethyl)pyridin-2-yl)piperazin-1-yl)pyrido[3,2-d]pyrimidine [Compound 21]", "EC50": "> 1000"}, {"molecule": "4-(4-(2-fluorophenyl)piperazin-1-yl)-6-(1-methyl-1H-pyrazol-3-yl)pyrido[3,2-d]pyrimidine [Compound 20]", "EC50": "> 1000"}]}]}
